# US8729048B2, “Methods and materials for assessing responsiveness to PARP inhibitors and platinating agents” (Mayo Foundation for Medical Education and Research, priority 2011, dated 2014)
# Key:
# Type in all cases: cell-based
# [1] = system: DNA-PK substrates (DNA-PKcs Thr2609, Histone H2AX Ser139) in PEO1 cells; assay: Immunoblotting for phosphorylation of DNA-PK substrates; details: 72 hours, with 20 μM ABT-888, 500 nM DNA-PKi or 5 μM ATMi
# Method: FIG. 2. DNA-PK is activated following PARP inhibitor exposure in PEO1 cells. (A) Western blots for poly(ADP-ribose) polymer (pADPr) and phosphorylation of DNA-PK substrates (DNA-PKcs autophosphorylation at Thr^2609 and Histone H2AX at Ser^139) in PEO1 cells following 72 hours exposure to increasing concentrations of ABT-888 (0, 0.625, 1.25, 2.5, 5, 10, 20, and 40 μM). Hsp90, total DNA-PKcs, and Histone H1 are used as loading controls. (B) Phosphorylation of DNA-PK substrates after treatment for 72 hours with diluent (0.2% DMSO, lanes 1 and 4), 500 nM DNA-PK inhibitor AZ12594248 (DNA-PKi, lanes 2 and 5), or 5 μM ATM inhibitor KU55933 (ATMi, lanes 3 and 6) alone (lanes 1-3) or in combination with 20 μM ABT-888 (lanes 4-6). (C) Quantitation of cells positive for phospho-H2AX foci in PEO1 and PEO4 cells, following treatment with DMSO, 500 nM DNA-PKi, 20 μM ABT-888 (ABT), ABT-888 and DNA-PKi, 50 μM Etoposide (Etop), or 5 Gy ionizing radiation (IR). Cells were exposed to ABT-888 and/or DNA-PKi for 72 hours, etoposide for 1 hour, or allowed to recover for 1 hour after IR. Results are reported as mean±SEM of 3 independent experiments. (D) Confocal images of PEO1 cells treated as in […]. Phospho-Ser^139-H2AX is shown in green, phospho-Thr^2609-DNA-PKcs in red, and Hoechst 33258 in blue.
# Cells were washed twice with calcium- and magnesium-free Dulbecco's phosphate-buffered saline (PBS) and solubilized in 6 M guanidine hydrochloride containing 250 mM Tris-HCl, pH 8.5 at 20° C., 10 mM EDTA, 1% (v/v) 2-mercaptoethanol, and 1 mM freshly added phenylmethylsulfonyl fluoride. After preparation for electrophoresis as described elsewhere (Kaufmann et al., Blood, 89:2098-2104 (1997)), aliquots containing 50 μg of protein (determined by the bicinchoninic acid method—S10) were separated on SDS-polyacrylamide gels containing 8% (w/v) acrylamide, electrophoretically transferred to nitrocellulose, and probed with immunological reagents as described elsewhere (Kaufmann, Anal. Biochem., 296:283-286 (2001)). […]
# [2] = system: BRCA2-deficient PEO1 cells; assay: Clonogenic assay, PEO1
# Method: (§1) FIG. 5. NHEJ is a major contributor to PARP inhibitor effects in BRCA2-deficient cells. (A) Western blots showing knockdown of Ku80 in PEO1 and PEO4 cells. (B) Clonogenic survival of PEO1 and PEO4 cells from (A), which were treated with the indicated ABT-888 concentration for 72 hours, washed, and allowed to form colonies. (C) Western blots following treatment with siRNA targeting luciferase (control), Ku80, PARP1, or both Ku80 and PARP1. (D) Clonogenic viability of PEO 1 and PEO4 cells from (C). Following knockdown, cells were plated onto triplicate plates and allowed to form colonies. (E) Clonogenic survival of PEO1 cells following Artemis knockdown. After treatment with the indicated siRNA, plates were treated with indicated concentration of ABT-888 for 72 hours, washed, and allowed to form colonies. Inset, Western blots showing knockdown using luciferase (control) or Artemis siRNAs in PEO1 cells. (F) Clonogenic survival of PEO1 and PEO4 cells treated for 72 hours with ABT-888 in combination with diluent or 500 nM DNA-PKi. All results are reported as means of triplicate plates±SEM, and are representative of 3 independent experiments.
# FIG. 13. DNA-PK inhibition diminishes the lethality of multiple PARP inhibitors in PEO1 cells. (A) Representative clonogenic plates after PEO1 cells were treated with ABT-888 (0, 5, or 20 μM) with or without 500 nM DNA-PKi. (B, C) Bar graphs comparing clonogenic survival of PEO1 cells exposed to two PARP inhibitors with or without 500 nM DNA-PKi. The PARP inhibitors used for these assays are ABT-888 (B) and AZD2281/olaparib (C). Results are reported as mean±SEM of triplicate plates.
# FIG. 18. Artemis knockdown confers resistance to PARP inhibition and cisplatin in BRCA2-deficient/mutant cells. Clonogenic survival assays of PEO1 shRNA lines continuously exposed to ABT-888 (A) or cisplatin (B), or exposed to ionizing radiation (C). (D-F) Clonogenic survival assays of CAPAN1 shRNA lines exposed to ABT-888 (D), cisplatin (E), or exposed to ionizing radiation (F).
# (§2) Colony formation assays were performed on siRNA-transfected PEO1 and PEO4 cells 48 hours after the second transfection. Cells were trypsinized and plated at 750 cells/plate in triplicate 60-mm dishes containing medium A, allowed to grow 10-14 days, and stained with Coomassie Brilliant Blue. Colonies containing ≧50 cells were scored manually. To assess methyl methanesulfonate (MMS) sensitivity, PEO1 or PEO4 cells were incubated for 48 hours after the second siRNA treatment, plated onto 60-mm dishes, allowed to adhere for 4 hours, exposed to the indicated concentration of MMS (Sigma-Aldrich) for 1 hour, washed with sterile RPMI 1640, and allowed to grow into colonies in medium A. For drug treatment, cells (without siRNA) were allowed to adhere for 4-6 hours, then treated with the indicated concentrations of ABT-888 and/or AZ12594248 for 72 hours. Following drug treatment, cells were washed with drug-free RPMI 1640, cultured for 10-14 days in medium A, and stained. For HCC1937 and HCC1937/BRCA1 cells, a similar procedure was used with several changes: 1000 cells were plated in medium B, and treatment was continuous for 16-20 days. M059J and M059J+DNA-PKcs were plated at 1000 cells per plate in medium C and treated for 48 hours. GM16666 and 16667 were plated at 1000 cells per plate in medium D and treated for 48 hours.
# [3] = system: BRCA2-positive PEO4 cells; assay: Clonogenic assay, PEO4; details: XRCC1 siRNA, 1 hour exposure
# Method: as §1
# as §2, with “Following drug treatment, cells were washed with drug-free RPMI 1640, cultured for 10-14 days in medium A, and stained. For HCC1937 and HCC1937/BRCA1 cells, a similar procedure was used with several changes: 1000 cells were plated in medium B, and treatment was continuous for 16-20 days. M059J and M059J+DNA-PKcs were plated at 1000 cells per plate in medium C and treated for 48 hours. GM16666 and 16667 were plated at 1000 cells per plate in medium D and treated for 48 hours.” left out
smiles,measurement,setting,value
O=c1cc(-c2cccc3c2Sc2ccccc2S3)oc(N2CCOCC2)c1 [KU55933],effect on ABT-888-induced phosphorylation of DNA-PKcs and H2AX,[1],did not
N.N.[Cl][Pt][Cl] [cisplatin],clonogenic sensitivity after stable Artemis knockdown,"[2]; PEO1 shRNA lines, continuous exposure",conferred resistance
"COS(C)(=O)=O [methane methylsulfonate, methyl methanesulfonate]",clonogenic sensitivity after XRCC1 knockdown,"[2]; PEO1 cells, XRCC1 siRNA, 1 hour exposure",sensitized
same,clonogenic sensitivity after XRCC1 knockdown,[3],sensitized
